In patent publication US20260365670A1, “EGFR INHIBITORS AND USES THEREOF” (DIZAL (JIANGSU) PHARMACEUTICAL CO., LTD., priority 2022, published 2026):
pIC50: −log10 of the molar value. Read-outs that look alike come from different tables or passages of the source.

Assays:
EGFR wild type = biological target: T1, EGFR wild type (Homo sapiens, UniProt P00533); test: Inhibition of EGFR wild type biochemical enzymatic activity (HTRF); settings: 1 mM ATP; for pIC50: EGFR wild type, 1 h at room temperature, read-out: IC50 @WT
T1 construct: purchased Carna Bio
T1 sequence (P00533 25-1210): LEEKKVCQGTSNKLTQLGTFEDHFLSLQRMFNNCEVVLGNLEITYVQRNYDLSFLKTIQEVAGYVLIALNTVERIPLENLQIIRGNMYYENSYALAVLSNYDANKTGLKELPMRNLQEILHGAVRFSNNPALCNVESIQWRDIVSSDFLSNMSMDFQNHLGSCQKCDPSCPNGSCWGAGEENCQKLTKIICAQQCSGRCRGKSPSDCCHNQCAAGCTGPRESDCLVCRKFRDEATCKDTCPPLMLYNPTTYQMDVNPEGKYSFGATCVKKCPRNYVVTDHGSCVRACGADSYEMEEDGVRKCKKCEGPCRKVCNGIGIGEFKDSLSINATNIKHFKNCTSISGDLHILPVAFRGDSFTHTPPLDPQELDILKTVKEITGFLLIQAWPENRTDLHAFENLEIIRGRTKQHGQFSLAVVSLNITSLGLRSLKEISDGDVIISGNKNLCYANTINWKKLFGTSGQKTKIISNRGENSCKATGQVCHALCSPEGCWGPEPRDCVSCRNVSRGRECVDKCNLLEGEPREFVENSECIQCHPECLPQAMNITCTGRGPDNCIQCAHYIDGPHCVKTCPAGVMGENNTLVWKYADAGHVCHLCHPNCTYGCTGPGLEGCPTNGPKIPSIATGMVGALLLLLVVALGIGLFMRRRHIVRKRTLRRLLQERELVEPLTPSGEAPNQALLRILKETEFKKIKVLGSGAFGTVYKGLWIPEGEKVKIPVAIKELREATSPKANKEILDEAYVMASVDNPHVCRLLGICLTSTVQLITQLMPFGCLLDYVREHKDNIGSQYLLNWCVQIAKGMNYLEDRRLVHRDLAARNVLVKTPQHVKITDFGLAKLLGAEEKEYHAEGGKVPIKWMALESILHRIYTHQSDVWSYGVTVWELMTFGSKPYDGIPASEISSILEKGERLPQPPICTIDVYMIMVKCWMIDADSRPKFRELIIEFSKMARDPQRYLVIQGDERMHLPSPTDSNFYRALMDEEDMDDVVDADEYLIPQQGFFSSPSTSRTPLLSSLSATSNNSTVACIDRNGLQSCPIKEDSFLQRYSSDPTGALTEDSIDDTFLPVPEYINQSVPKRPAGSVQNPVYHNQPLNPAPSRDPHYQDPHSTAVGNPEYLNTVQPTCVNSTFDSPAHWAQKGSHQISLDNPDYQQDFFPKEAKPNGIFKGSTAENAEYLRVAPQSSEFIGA
Procedure, shortened: (§1)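 Each enzyme was first added to plates holding compound. The reaction was then started with ATP (1 mM) and peptide substrate (1 μM). It was stopped after 1 h at room temperature with EDTA detection reagents and read at 615/665 nm to derive IC50s.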

EGFR L858R = biological target: T2, EGFR L858R (Homo sapiens, UniProt P00533, L858R); test: Inhibition of EGFR L858R biochemical enzymatic activity (HTRF); settings: 1 mM ATP; for pIC50: 1 h at room temperature, read-out: IC50 @L858R
T2 construct: purchased Carna Bio
T2 sequence (P00533 25-1210 L858R): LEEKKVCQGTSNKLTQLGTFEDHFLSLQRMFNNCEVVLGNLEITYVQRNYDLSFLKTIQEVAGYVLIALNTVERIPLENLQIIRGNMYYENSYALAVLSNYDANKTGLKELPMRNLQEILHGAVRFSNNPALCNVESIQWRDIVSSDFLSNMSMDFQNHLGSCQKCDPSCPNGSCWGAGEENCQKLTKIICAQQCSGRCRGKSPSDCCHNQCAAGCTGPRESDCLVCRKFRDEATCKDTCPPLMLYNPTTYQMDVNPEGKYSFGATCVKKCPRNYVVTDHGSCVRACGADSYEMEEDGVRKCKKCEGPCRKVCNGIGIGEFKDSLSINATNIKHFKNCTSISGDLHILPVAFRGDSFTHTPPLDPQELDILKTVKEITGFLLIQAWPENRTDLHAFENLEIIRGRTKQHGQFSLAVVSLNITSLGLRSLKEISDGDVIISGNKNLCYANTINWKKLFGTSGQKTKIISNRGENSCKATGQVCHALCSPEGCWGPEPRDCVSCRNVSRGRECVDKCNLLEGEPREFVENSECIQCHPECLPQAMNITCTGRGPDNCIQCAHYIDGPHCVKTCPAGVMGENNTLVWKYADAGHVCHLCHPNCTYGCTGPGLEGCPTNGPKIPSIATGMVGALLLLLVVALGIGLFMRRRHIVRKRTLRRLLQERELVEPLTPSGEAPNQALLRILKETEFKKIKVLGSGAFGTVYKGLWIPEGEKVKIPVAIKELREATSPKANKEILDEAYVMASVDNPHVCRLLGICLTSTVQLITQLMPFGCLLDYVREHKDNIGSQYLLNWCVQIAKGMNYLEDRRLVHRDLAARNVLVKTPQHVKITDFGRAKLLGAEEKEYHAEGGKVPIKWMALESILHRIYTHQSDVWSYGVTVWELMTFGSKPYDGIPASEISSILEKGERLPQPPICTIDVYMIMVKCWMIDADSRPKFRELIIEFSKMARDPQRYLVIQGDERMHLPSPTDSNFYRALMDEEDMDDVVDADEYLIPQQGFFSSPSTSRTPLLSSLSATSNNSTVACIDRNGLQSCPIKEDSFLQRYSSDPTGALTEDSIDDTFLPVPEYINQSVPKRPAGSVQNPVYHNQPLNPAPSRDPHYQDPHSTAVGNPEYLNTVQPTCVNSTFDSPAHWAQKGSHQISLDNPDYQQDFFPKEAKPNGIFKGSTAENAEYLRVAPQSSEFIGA
Procedure, shortened: as §1

EGFR L858R/T790M = biological target: T3, EGFR L858R/T790M (Homo sapiens, UniProt P00533, L858R/T790M); test: Inhibition of EGFR L858R/T790M biochemical enzymatic activity (HTRF); settings: 1 mM ATP; for pIC50: EGFR L858R/T790M, 1 h at room temperature, read-out: IC50 @L858R-T790M
T3 construct: purchased Carna Bio
T3 sequence (P00533 25-1210 T790M/L858R): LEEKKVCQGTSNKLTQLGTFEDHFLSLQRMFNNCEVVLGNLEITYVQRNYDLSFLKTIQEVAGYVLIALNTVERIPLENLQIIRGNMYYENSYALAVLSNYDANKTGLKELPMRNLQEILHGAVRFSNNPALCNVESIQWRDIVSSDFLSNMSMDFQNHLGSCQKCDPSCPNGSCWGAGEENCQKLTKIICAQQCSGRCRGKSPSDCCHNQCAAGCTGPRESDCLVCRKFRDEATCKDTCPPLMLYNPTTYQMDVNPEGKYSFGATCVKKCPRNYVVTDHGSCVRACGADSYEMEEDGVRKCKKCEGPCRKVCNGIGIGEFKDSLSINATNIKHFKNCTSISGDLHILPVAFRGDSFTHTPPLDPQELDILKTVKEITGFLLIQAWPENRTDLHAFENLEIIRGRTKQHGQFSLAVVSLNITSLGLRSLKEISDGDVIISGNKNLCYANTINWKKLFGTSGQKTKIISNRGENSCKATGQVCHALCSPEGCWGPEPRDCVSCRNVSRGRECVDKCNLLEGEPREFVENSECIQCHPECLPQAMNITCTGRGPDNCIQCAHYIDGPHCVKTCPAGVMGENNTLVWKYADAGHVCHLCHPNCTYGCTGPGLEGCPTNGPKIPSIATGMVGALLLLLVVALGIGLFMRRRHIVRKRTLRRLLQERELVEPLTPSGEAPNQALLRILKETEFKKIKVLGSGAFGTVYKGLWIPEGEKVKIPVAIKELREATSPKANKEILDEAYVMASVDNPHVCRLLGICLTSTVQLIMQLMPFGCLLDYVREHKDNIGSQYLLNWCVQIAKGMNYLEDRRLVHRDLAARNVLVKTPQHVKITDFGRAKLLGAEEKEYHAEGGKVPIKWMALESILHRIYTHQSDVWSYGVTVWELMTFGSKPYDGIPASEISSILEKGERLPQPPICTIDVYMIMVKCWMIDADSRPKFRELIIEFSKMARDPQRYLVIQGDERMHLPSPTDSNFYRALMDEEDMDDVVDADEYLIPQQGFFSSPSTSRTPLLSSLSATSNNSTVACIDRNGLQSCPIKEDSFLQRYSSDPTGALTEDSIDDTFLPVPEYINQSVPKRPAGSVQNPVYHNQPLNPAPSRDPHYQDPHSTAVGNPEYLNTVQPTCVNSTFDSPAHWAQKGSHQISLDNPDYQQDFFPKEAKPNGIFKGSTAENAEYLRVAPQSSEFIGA
Procedure, shortened: as §1

EGFR Exon19Del = biological target: T4, EGFR Exon19Del (Homo sapiens, UniProt P00533, DEL746-750); test: Inhibition of EGFR Exon19Del biochemical enzymatic activity (HTRF); settings: read-out: IC50 @Del19
T4 construct: purchased Carna Bio
Procedure, shortened: as §1

EGFR Exon19Del/T790M = biological target: T5, EGFR Exon19Del/T790M (Homo sapiens, UniProt P00533, DEL746-750/T790M); test: Inhibition of EGFR Exon19Del/T790M biochemical enzymatic activity (HTRF); settings: 1 mM ATP; for pIC50: EGFR Exon19Del/T790M, 1 h at room temperature, read-out: IC50 @Del19-T790M
T5 construct: purchased Carna Bio
T5 sequence (P00533 with tags, fused parts or gaps DEL746-750/T790M limits assumed): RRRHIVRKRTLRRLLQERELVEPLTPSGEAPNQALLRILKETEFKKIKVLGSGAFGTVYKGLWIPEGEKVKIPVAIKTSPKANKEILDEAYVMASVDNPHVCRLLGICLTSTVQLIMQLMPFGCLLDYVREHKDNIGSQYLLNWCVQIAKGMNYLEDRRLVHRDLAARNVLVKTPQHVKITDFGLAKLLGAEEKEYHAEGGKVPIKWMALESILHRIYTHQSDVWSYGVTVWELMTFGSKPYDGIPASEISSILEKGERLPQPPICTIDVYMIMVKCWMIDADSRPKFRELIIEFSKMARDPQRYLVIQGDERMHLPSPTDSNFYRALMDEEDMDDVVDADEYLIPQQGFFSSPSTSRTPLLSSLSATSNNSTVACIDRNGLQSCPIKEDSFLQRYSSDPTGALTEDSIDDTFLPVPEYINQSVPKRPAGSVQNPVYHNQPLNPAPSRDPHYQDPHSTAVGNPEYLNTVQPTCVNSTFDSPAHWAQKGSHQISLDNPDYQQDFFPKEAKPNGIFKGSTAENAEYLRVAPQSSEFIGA
Procedure, shortened: as §1

EGFR[T790M/C797S/L858R] = biological target: T6, EGFR[T790M/C797S/L858R] (Homo sapiens, UniProt P00533, C797S/L858R/T790M); test: Inhibition of EGFR[T790M/C797S/L858R] biochemical enzymatic activity (HTRF); settings: 1 mM ATP; for pIC50: EGFR[T790M/C797S/L858R], 1 h at room temperature, read-out: IC50 @T790M- C797S - L858R
T6 construct: purchased Carna Bio
Procedure, shortened: as §1

[1] = biological target: T7, EGFR[T790M/C797S/d746-750] (Homo sapiens, UniProt P00533, C797S/DEL746-750/T790M); test: Inhibition of EGFR[T790M/C797S/d746-750] biochemical enzymatic activity (HTRF); settings: for pIC50: EGFR[T790M/C797S/d746-750], 1 mM ATP, 1 h at room temperature, read-out: IC50 @T790M - C797S - Del19
T7 construct: purchased Carna Bio
Procedure, shortened: as §1

EGFR (d746-750 C797S) = biological target: T8, EGFR (d746-750 C797S) (Homo sapiens, UniProt P00533, C797S/DEL746-750); test: Inhibition of EGFR (d746-750 C797S) biochemical enzymatic activity (HTRF); settings: 1 mM ATP; for pIC50: EGFR (d746-750 C797S), 1 h at room temperature, read-out: IC50 @Del19-C797S
T8 construct: purchased signalchem
T8 sequence (P00533 with tags, fused parts or gaps DEL746-750/C797S limits assumed): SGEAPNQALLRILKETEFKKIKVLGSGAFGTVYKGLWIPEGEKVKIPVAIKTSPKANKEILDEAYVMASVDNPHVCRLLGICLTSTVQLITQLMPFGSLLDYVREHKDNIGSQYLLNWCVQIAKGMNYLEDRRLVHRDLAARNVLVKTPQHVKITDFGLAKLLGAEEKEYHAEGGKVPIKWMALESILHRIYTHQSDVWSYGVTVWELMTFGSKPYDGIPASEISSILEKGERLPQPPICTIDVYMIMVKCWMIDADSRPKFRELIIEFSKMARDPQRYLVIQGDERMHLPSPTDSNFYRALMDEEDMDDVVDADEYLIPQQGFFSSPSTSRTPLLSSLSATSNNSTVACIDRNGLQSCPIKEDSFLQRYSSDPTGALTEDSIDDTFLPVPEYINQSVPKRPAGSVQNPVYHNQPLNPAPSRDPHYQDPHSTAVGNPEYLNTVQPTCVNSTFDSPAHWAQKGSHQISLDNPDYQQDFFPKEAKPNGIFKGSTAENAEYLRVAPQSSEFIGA
Procedure, shortened: as §1

EGFR (C797S L858R) = biological target: T9, EGFR (C797S L858R) (Homo sapiens, UniProt P00533, C797S/L858R); test: Inhibition of EGFR (C797S L858R) biochemical enzymatic activity (HTRF); settings: 1 mM ATP; for pIC50: EGFR (C797S L858R), 1 h at room temperature, read-out: IC50 @L858-C797S
T9 construct: purchased signalchem
Procedure, shortened: as §1

[2] = tested on: Ba/F3 cells expressing EGFR mutations; test: Cell proliferation assay, Ba/F3 cells expressing EGFR mutations (CellTiter-Glo, 72 hours); format: cell-based
Procedure, shortened: (§2)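 Ba/F3 cells carrying EGFR mutants (5000/well) or PC-9 cells (500/well) in RPMI1640 were dosed with compound series after overnight attachment and grown 72 h. Viability read by CellTiter-Glo, with day-0 counts subtracted; GI50 from curve fits of % proliferation versus DMSO control.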

PC-9 = test: Cell proliferation assay, PC-9 cells (CellTiter-Glo, 72 hours); format: cell-based; settings: PC9 cells, read-out: GI50 PC9
Procedure, shortened: as §2

A-431 = test: Cell proliferation assay, A-431 cells (GI50, Table 6); format: cell-based
[3] = EGFR Exon19Del, 1 mM ATP, 1 h at room temperature
[4] = Mus musculus, BaF3, 72 h, BaF3 cells, EGFR DEL19 - C797S, read-out: GI50 DEL19 - C797S/BaF3
[5] = Mus musculus, BaF3, 72 h, BaF3 cells, EGFR DEL19 - T790-C797S, read-out: GI50 DEL19 - T790-C797S/BaF3
[6] = Mus musculus, BaF3, 72 h, BaF3 cells, EGFR L858R - C797S, read-out: GI50 L858R - C797S/BaF3
[7] = Mus musculus, BaF3, 72 h, BaF3 cells, EGFR L858R - T790-C797S, read-out: GI50 L858R - T790-C797S/BaF3
[8] = Mus musculus, BaF3, 72 h, BaF3 cells, EGFR L858R - T790M, read-out: GI50 L858R - T790M/BaF3
[9] = Mus musculus, BaF3, 72 h, BaF3 cells, EGFR L858R, read-out: GI50 L858R/BaF3
[10] = Mus musculus, BaF3, 72 h, EGFR DEL19 - T790M, read-out: GI50 DEL19 - T790M
[11] = Homo sapiens, A-431, A-431 cells

| Structure (SMILES) | pIC50 (EGFR wild type) | pIC50 (EGFR L858R) | pIC50 (EGFR L858R/T790M) | pIC50 (EGFR Exon19Del; [3]) | pIC50 (EGFR Exon19Del/T790M) | pIC50 (EGFR[T790M/C797S/L858R]) | pIC50 [1] | pIC50 (EGFR (d746-750 C797S)) | pIC50 (EGFR (C797S L858R)) | GI50 [2, 4] [µM] | GI50 [2, 5] [µM] | GI50 [2, 6] [µM] | GI50 [2, 7] [µM] | GI50 [2, 8] [µM] | GI50 [2, 9] [µM] | GI50 [2, 10] [µM] | GI50 (PC-9; Homo sapiens, PC-9, 72 h) [µM] | GI50 (A-431; [11]) [µM] | other results |
| --- | --- | --- | --- | --- | --- | --- | --- | --- | --- | --- | --- | --- | --- | --- | --- | --- | --- | --- | --- |
| Cc1cc2cc(n1)-c1cnn(C)c1OCCN1CC3CCC(C3)(C1)n1c(nc3ccc(N4CC(N5CCOCC5)C4)cc31)NC2=O (single isomer, unassigned) [Example B48B] | 5.53 | 6.85 | 8.17 | 7.89 | 8.16 | 8.52 | 8.47 | 8.35 | 7.36 | – | – | – | – | – | – | – | – | – | GI50 ([2]; BaF3 cells, EGFR DEL19 - C797S, read-out: GI50 DEL19 - C797S/BaF3): 0.002 µM; GI50 ([2]; BaF3 cells, EGFR DEL19 - T790-C797S, read-out: GI50 DEL19 - T790-C797S/BaF3): 0.002 µM; GI50 ([2]; BaF3 cells, EGFR L858R - C797S, read-out: GI50 L858R - C797S/BaF3): 0.006 µM; GI50 ([2]; BaF3 cells, EGFR L858R - T790-C797S, read-out: GI50 L858R - T790-C797S/BaF3): 0.002 µM; GI50 ([2]; BaF3 cells, EGFR L858R - T790M, read-out: GI50 L858R - T790M/BaF3): 0.002 µM; GI50 ([2]; BaF3 cells, EGFR L858R, read-out: GI50 L858R/BaF3): 0.013 µM; GI50 ([2]; EGFR DEL19 - T790M, read-out: GI50 DEL19 - T790M): 0.002 µM; GI50 (PC-9): 0.012 µM; GI50 (A-431; A-431 cells): 1.37 µM |
| Cc1cc2cc(n1)-c1cnn(C)c1OCCN1CC3CCC(CC3)(C1)n1c(nc3ccc(N4CCN(C(C)C)CC4)cc31)NC2=O [Example B39] | < 5.30 | 6.55 | 8.11 | 7.70 | 8.18 | 8.38 | 8.48 | 8.03 | 6.90 | 0.024 | 0.008 | 0.101 | 0.004 | 0.018 | 0.167 | 0.007 | 0.178 | 7.73 | – |
| Cc1cc2cc(n1)-c1cnn(C)c1OCCN1CC3CCC(CC3)(C1)n1c(nc3ccccc31)NC2=O [Example B1, 15,21-Dimethyl-23-oxa-2,9,11,16,20,21,26-heptaazaheptacyclo[26.2.2.1^{1,26}.1^{13,17}.0^{2,10}.0^{3,8}.0^{18,22}]tetratriaconta-3,5,7,9,13,15,17(34),18(22),19-nonaen-12-one] | – | – | – | – | – | – | – | – | – | 0.095 | 0.02 | 0.736 | 0.051 | 0.098 | 0.751 | 0.022 | 0.41 | 4.39 | IC50 (EGFR wild type; EGFR WT, 1 h, room temperature, read-out: IC50 (nM) @WT): > 5000 nM; IC50 (EGFR L858R; 1 h, room temperature, read-out: IC50 (nM) @L858R): 1480 nM; IC50 (EGFR L858R/T790M; EGFR L858R-T790M, 1 h, room temperature, read-out: IC50 (nM) @L858R-T790M): 15 nM; pIC50 (EGFR Exon19Del; EGFR Del19, 1 mM ATP, 1 h, room temperature): 6.82; IC50 (EGFR Exon19Del/T790M; EGFR Del19-T790M, 1 h, room temperature, read-out: IC50 (nM) @Del19-T790M): 6.5 nM; IC50 (EGFR[T790M/C797S/L858R]; EGFR T790M-C797S-L858R, 1 h, room temperature, read-out: IC50 (nM) @T790M- C797S - L858R): 23 nM; IC50 ([1]; EGFR T790M-C797S-Del19, 1 mM ATP, 1 h, room temperature, read-out: IC50 (nM) @T790M - C797S - Del19): 13 nM; IC50 (EGFR (d746-750 C797S); EGFR Del19-C797S, 1 h, room temperature, read-out: IC50 (nM) @Del19-C797S): 2200 nM; IC50 (EGFR (C797S L858R); EGFR L858-C797S, 1 h, room temperature, read-out: IC50 (nM) @L858-C797S): 112 nM |
| Cc1cc2cc(n1)-c1cnn(C)c1OCCN1CC3CCC(C3)(C1)n1c(nc3ccccc31)NC2=O (stereo not drawn) [Example B8B, 15,21-dimethyl-23-oxa-2,9,11,16,20,21,26-heptaazaheptacyclo[24.4.1.1^{1,28}.1^{13,17}.0^{2,10}.0^{3,8}.0^{18,22}]tritriaconta-3,5,7,9,13,15,17(33),18(22),19-nonaen-12-one] | < 5.30 | 6.33 | 8.89 | 7.85 | 9.02 | 9.00 | 9.01 | 8.38 | 6.70 | 0.0048 | 0.0021 | 0.053 | 0.0024 | 0.0086 | 0.072 | 0.0026 | 0.063 | 2.71 | – |
